# Biological target: T1, human OTOP1 (hOTOP1) (Homo sapiens, UniProt Q7RTM1)
# T1 construct: expressed in transfected cells; host or cells: HEK-293 (CRL-1573, ATCC)
# T1 sequence (Q7RTM1 1-612): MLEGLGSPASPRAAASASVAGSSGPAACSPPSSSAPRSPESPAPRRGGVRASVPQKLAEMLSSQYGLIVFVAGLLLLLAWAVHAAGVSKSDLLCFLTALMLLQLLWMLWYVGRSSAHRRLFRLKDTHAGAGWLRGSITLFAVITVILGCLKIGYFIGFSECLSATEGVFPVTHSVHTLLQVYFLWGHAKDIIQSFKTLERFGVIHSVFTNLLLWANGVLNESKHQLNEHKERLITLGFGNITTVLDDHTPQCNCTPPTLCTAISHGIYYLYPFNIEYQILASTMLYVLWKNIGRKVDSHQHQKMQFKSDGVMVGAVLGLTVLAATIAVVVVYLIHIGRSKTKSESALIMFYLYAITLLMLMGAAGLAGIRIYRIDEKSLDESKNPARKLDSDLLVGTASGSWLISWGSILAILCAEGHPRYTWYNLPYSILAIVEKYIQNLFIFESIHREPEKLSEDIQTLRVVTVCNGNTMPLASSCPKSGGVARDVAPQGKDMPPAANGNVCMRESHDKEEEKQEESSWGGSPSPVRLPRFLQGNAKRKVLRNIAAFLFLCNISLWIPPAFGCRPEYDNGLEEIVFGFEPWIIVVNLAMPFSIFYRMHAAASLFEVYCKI
# Test: Whole-cell patch-clamp, inhibition of currents, hOTOP1 in HEK-293 cells
# Type: cell-based
# Conditions: HEK293, 300 µM (saturating concentration of C11)
# Description: The second series of compounds was again tested by whole-cell patch-clamp recording of DrOTOP1 expressed in HEK-293 cells. Of the 54 compounds tested, we identified 16 that inhibited DrOTOP1 acid-induced currents by over 25% (Fig. 2D and Supplementary Fig. 3E). […] The Hill coefficient of 1.52 indicated positive cooperativity and multiple binding sites, similar to C11. We next tested each of these compounds against mouse OTOP1 (mOTOP1) and human (Homo sapiens) OTOP1 (hOTOP1), which are among the closest related proteins in the mammalian proteome. […] For both compounds, we also determined whether there was any pH-dependence to their inhibitory effect by measuring dose-response curves over a range from pH 6.0, where sizable currents first appear, to pH 5.0. […]
# Whole-cell patch-clamp recording was performed as previously described[6],[22],[25]. Recordings were made with an Axopatch 200B amplifier, digitized with a Digidata 1322a 16-bit data acquisition system, acquired with pClamp 8.2 and analyzed with Clampfit 10 (Molecular Devices). […]
# All data are presented as mean ± SEM unless otherwise noted, and each data point represents an independent replicant. Inhibition of compounds was quantified as ((I2peak-I1)/(I2peak))*100, where I1 is the current immediately before wash-off and I2peak is the maximum recovered current (Supplementary Fig. 2). […]
compound,measurement,value
"O=C(/C(=N\O)c1ccccc1)c1ccccc1 [C11, benzil monoxime]",inhibition at 300 µM,~24%

# — article PMC12549899 (Nature Communications, 2025)
